Measurements published in publication PMC9412300, “In Vitro Evaluation and Mitigation of Niclosamide’s Liabilities as a COVID-19 Treatment” (Vaccines, 2022).
Where “and” joins values, the source holds several entries; their conditions need not be identical. Identical values can stand only once. Like-named read-outs stand apart in the source and are kept apart here.

Columns and labels:
SARS-CoV-2 WA1 variant = test: microbe, parasite or virus in culture; type: cell-based
[1] = system: SARS-CoV-2 B.1.1.7 variant; test: microbe, parasite or virus in culture; type: cell-based; settings: for IC50: read-out: Vero-E6 (B.1.1.7) IC50
[2] = Cell viability in VeroE6, shortened 24 h infection assay; settings: African green monkey, VeroE6 cells infected with SARS-CoV-2, CC50 in shortened assay, VeroE6, 1 h preincubation, 24 h infection, top 10 μM
[3] = system: SARS-CoV-2 B.1.1.7 variant; test: microbe, parasite or virus in culture; type: cell-based
[4] = system: SARS-CoV-2 B.1.1.7 variant; type: cell-based
[5] = Severe acute respiratory syndrome coronavirus 2, NCI-H1437, 48 h
[6] = Severe acute respiratory syndrome coronavirus 2, Vero C1008, 48 h
[7] = VeroE6, B.1.1.7, 156, 313, 625 nM niclosamide vs viral control

SMILES	IC50 (SARS-CoV-2 WA1 variant; read-out: H1437 (WA1) IC50)	IC50 [1]	H1437 (WA1) IC50 (SARS-CoV-2 WA1 variant)	other results
O=C(Nc1ccc([N+](=O)[O-])cc1Cl)c1ccccc1O [Compound 2]	–	–	–	IC50 (SARS-CoV-2 WA1 variant; [5]): 4.92 µM; IC50 [1, 6]: 0.296 µM
Cc1ccc(O)c(C(=O)Nc2ccc([N+](=O)[O-])cc2Cl)c1 [Compound 3]	2.6 µM	1.25 µM	–	–
COc1ccc(O)c(C(=O)Nc2ccc([N+](=O)[O-])cc2Cl)c1 [Compound 4]	10.9 µM	1.77 µM	–	–
O=C(Nc1ccccc1Cl)c1cc(Cl)ccc1O [Compound 5]	> 20 µM	0.89 µM	–	–
Cc1ccc(NC(=O)c2cc(Cl)ccc2O)c(Cl)c1 [Compound 6]	> 20 µM	0.76 µM	–	–
COC(=O)c1ccc(NC(=O)c2cc(Cl)ccc2O)c(Cl)c1 [Compound 7]	–	–	Inverted	exacerbation of infection in H1437 (inverted concentration-response curves at high concentrations) (SARS-CoV-2 WA1 variant): exacerbate infection; IC50 [1, 6]: 0.334 µM
O=C(O)c1ccc(NC(=O)c2cc(Cl)ccc2O)c(Cl)c1 [Compound 8]	–	> 20 µM	Inverted	exacerbation of infection in H1437 (inverted concentration-response curves at high concentrations) (SARS-CoV-2 WA1 variant): exacerbate infection
O=C(Nc1ccc([N+](=O)[O-])cc1Cl)c1cccc(Cl)c1 [Compound 9]	–	–	complete loss of activity	IC50 (SARS-CoV-2 WA1 variant; [5]): > 20 µM; Vero-E6 (B.1.1.7) IC50 [1]: complete loss of activity; IC50 [1, 6]: > 20 µM
COc1ccc(NC(=O)c2cc(Cl)ccc2O)c(Cl)c1 [Compound 10]	–	4.25 µM	Inverted	exacerbation of infection in H1437 (inverted concentration-response curves at high concentrations) (SARS-CoV-2 WA1 variant): exacerbate infection
CC(C)(C)c1ccc(O)c(C(=O)Nc2ccc([N+](=O)[O-])cc2Cl)c1 [Compound 11]	–	–	–	IC50 (SARS-CoV-2 WA1 variant; [5]): 3.1 µM; IC50 [1, 6]: 0.423 µM
COc1ccc(O)c(C(=O)Nc2ccc([N+](=O)[O-])cc2Cl)c1 [Compound 12]	16.9 µM	1.5 µM	–	–
COC(=O)c1ccc(NC(=O)c2cc(C(C)(C)C)ccc2O)c(Cl)c1 [Compound 13]	> 20 µM	> 20 µM	–	–
CC(C)(C)c1ccc(O)c(C(=O)Nc2ccc(C(=O)O)cc2Cl)c1 [Compound 14]	–	> 20 µM	Inverted	–
CC(C)(C)c1ccc(O)c(C(=O)Nc2ccc(C(=O)O)cc2F)c1 [Compound 15]	–	> 20 µM	Inverted	–
Cc1cc(C(=O)O)ccc1NC(=O)c1cc(C(C)(C)C)ccc1O [Compound 16]	–	> 20 µM	Inverted	–
CC(C)(C)c1cc(C(=O)Nc2ccc(NS(C)(=O)=O)cc2Cl)c(O)c(C(C)(C)C)c1 [Compound 18]	–	> 20 µM	Inverted	–

SMILES	IC50 (SARS-CoV-2 WA1 variant; read-out: H1437 (WA1) IC50)	IC50 [1]	H1437 (WA1) IC50 (SARS-CoV-2 WA1 variant)	other results
CC(C)(C)c1cc(C(=O)Nc2ccc(N)cc2Cl)c(O)c(C(C)(C)C)c1 [Compound 19]	–	> 20 µM	Inverted	–
Cc1cc(NC(=O)c2cc(C(C)(C)C)cc(C(C)(C)C)c2O)ccc1C(=O)O [Compound 20]	> 20 µM	> 20 µM	–	–
COC(=O)c1ccc(NC(=O)c2cc(C3CCCCC3)ccc2O)c(Cl)c1 [Compound 21]	> 20 µM	9.91 µM	–	–
O=C(O)c1ccc(NC(=O)c2cc(C3CCCCC3)ccc2O)c(Cl)c1 [Compound 22]	–	4.51 µM	Inverted	exacerbation of infection in H1437 (inverted concentration-response curves at high concentrations) (SARS-CoV-2 WA1 variant): exacerbate infection
COC(=O)c1ccc(NC(=O)c2cc(C(F)(F)F)ccc2O)c(C)c1 [Compound 23]	> 20 µM	> 20 µM	–	–
N#Cc1ccc(NC(=O)c2cc(Cl)ccc2O)c(Cl)c1 [Compound 24]	–	–	–	IC50 (SARS-CoV-2 WA1 variant; [5]): 1.07 µM; IC50 [1, 6]: 0.348 µM
COC(=O)c1ccc(NC(=O)c2cccc(C(C)(C)C)c2O)c(Cl)c1 [Compound 25]	–	> 20 µM	Inverted	exacerbation of infection in H1437 (inverted concentration-response curves at high concentrations) (SARS-CoV-2 WA1 variant): exacerbate infection
CC(C)(C)c1cc(C(=O)Nc2ccc(C(=O)O)cc2Cl)c(O)c(C(C)(C)C)c1 [Compound 26]	> 20 µM	> 20 µM	–	–
Cc1cc(NC(=O)c2cc(C(C)(C)C)cc(C(C)(C)C)c2O)ccc1C(=O)O [Compound 27]	–	16.5 µM	–	–
COc1ccc(O)c(C(=O)Nc2ccc(C(=O)O)cc2C)c1 [Compound 28]	–	> 20 µM	Inverted	–
CC(C)(C)c1cccc(C(=O)Nc2ccc(C(=O)O)cc2Cl)c1O [Compound 30]	–	> 20 µM	Inverted	–
CC(C)(C)c1cccc(C(=O)Nc2ccc([N+](=O)[O-])cc2Cl)c1O [Compound 31]	> 20 µM	> 20 µM	–	–
CC(C)(C)c1cccc(C(=O)Nc2ccc(N)cc2Cl)c1O [Compound 32]	> 20 µM	> 20 µM	–	–
CC(C)(C)c1cccc(C(=O)Nc2ccc(NS(C)(=O)=O)cc2Cl)c1O [Compound 33]	–	2.88 µM	Inverted	exacerbation of infection in H1437 (inverted concentration-response curves at high concentrations) (SARS-CoV-2 WA1 variant): exacerbate infection
O=C(Nc1ccc(Br)cc1Cl)c1cc(Cl)ccc1O [Compound 34]	3.49 µM	0.76 µM	–	–
O=C(Nc1ccc([N+](=O)[O-])cc1Cl)c1cc(Cl)ccc1O [Niclosamide]	–	–	–	IC50 (SARS-CoV-2 WA1 variant; [5]): 16.8 µM; CC50 at 25 h [2]: > 10 µM; selectivity index (CC50/IC50), H1437 [3]: 1.67 and < 2; IC50 ([3]; Severe acute respiratory syndrome coronavirus 2, NCI-H1437): 0.261 µM; selectivity index (CC50/IC50), VeroE6 [1]: 1.86 and < 2; IC50 [1, 6]: 0.564 µM; maximum size of syncytia (max area of viral objects) [4, 7]: decreased; number of individually infected cells within a well (viral objects per well) [4, 7]: reduced; N protein intensity of remaining viral objects ([4]; VeroE6, B.1.1.7, escalating concentrations 156, 313, 625 nM): increased
